Values quoted from earlier work in patent US20090087484A1, “Formulation and dosage form for increasing oral bioavailability of hydrophilic macromolecules” (priority 2007, published 2009).
Where two headings read alike, the source gives them in different places.

Experiments:
[1] = in vivo

Row | elimination half-life in urine (after oral administration) [h] | oral bioavailability (in humans) | elimination half-life (mean value, following IV injection) [h] | oral bioavailability [1] | Compound
1 | 4.8 | approximately 3% | 24 |  | pentosan polysulfate sodium [PPS]
2 |  |  |  | about 0.15% | NC(=O)CC[C@@H]1NC(=O)[C@H](Cc2ccccc2)NC(=O)[C@H](Cc2ccc(O)cc2)NC(=O)CCSSC[C@@H](C(=O)N2CCC[C@H]2C(=O)N[C@H](CCCN=C(N)N)C(=O)NCC(N)=O)NC(=O)[C@H](CC(N)=O)NC1=O [dDAVP, Desmopressin]
